Source: patent US20130345215A1, “PYRAZOLOPYRIMIDONE AND PYRAZOLOPYRIDONE INHIBITORS OF TANKYRASE” (Genentech, Inc., priority 2012, published 2013)

test system: Wnt stimulated TCF transcriptional activity, HEK293-TS 112 TCF reporter cell line; experiment: Tankyrase 1 Assay (Example 119): Wnt3A-stimulated TOPbrite TCF luciferase reporter; assay type: cell-based; conditions: Compounds I-59 to I-144, procedure in Example 119 (0.5 ug/mL Wnt3A, 16 hours); read-out: TNKS1 (IC50)
Method: Inhibition of the Wnt stimulated TCF transcriptional activity by tankyrase inhibitors was determined utilizing a HEK293-TS 112 TCF reporter cell line. A Wnt-responsive luciferase reporter named TOPbrite was constructed by cloning the enhancer element of Super8xTOPFlash containing eight TCF/LEF binding sites into the pGL4.28 vector (Promega) upstream of the minimal promoter element, and selecting for hygromycin B resistance (50 μg/ml). Cells were seeded into 384-well plates in the presence of 0.5 ug/mL of Wnt3A at a density of 20,000 cells per well in 25 ul of F:12 DMEM media supplemented with 10% FBS and 2 mM Glutamax. Cells seeded without the addition of Wnt3A were used as background signal. Compounds of various concentrations were added to cells and incubated at 37 degrees with 5% CO2 for 16 hours. The assay was terminated with the addition of Promega Dual Glo kit per manufacturer's instructions. A ratio of TOPbrite Firefly Luciferase and SV40 Renillla Luciferase was calculated and the background from the neutral wells was subtracted yielding the final normalized measurement of TCF transcriptional activity. Compound IC50s were determined by four-parameter curve fitting using GeneData software.

| Molecule | IC50 [nM] |
| --- | --- |
| COCCOc1cc(F)c(N2CCN(c3nc4c(cnn4CC(C)(C)O)c(=O)[nH]3)CC2)c(F)c1 [Compound I-143, 6-[4-[2 6-difluoro-4-(2-methoxyethoxy)phenyl]piperazin-1-yl]-1-(2-hydroxy-2-methyl-propyl)-5H-pyrazolo[3 4-d]pyrimidin-4-one] | 795 |
| 6-[4-(3-fluorophenyl)-1- piperidyl]-1-methyl-5H- pyrazolo[3 4-d]pyrimidin- 4-one [Compound I-84] | 17 |
| CC(O)Cn1ccc(C2(C)CCN(c3nc4c(cnn4C)c(=O)[nH]3)CC2)n1 (stereo not drawn) [Compound I-99, 6-[4-[1-(2-hydroxypropyl)pyrazol-3-yl]-4-methyl-1-piperidyl]-1-methyl-5H-pyrazolo[3 4-d]pyrimidin-4-one] | 41.9 |
| 6-[4-(2-fluorophenyl)-1- piperidyl]-1-methyl-5H- pyrazolo[3 4-d]pyrimidin- 4-one [Compound I-88] | 19.3 |
| CCn1ccc(C2(C)CCN(c3nc4c(cnn4C)c(=O)[nH]3)CC2)n1 [Compound I-92, 6-[4-(1-ethylpyrazol-3-yl)-4-methyl-1-piperidyl]-1-methyl-5H-pyrazolo[3 4-d]pyrimidin-4-one] | 24.5 |
| Cn1ncc2c(=O)[nH]c(N3CCC(C)(c4cc[nH]n4)CC3)nc21 [Compound I-82, 1-methyl-6-[4-methyl-4-(1H-pyrazol-3-yl)-1-piperidyl]-5H-pyrazolo[3 4-d]pyrimidin-4-one] | 15.1 |
| CN1CCN(Cc2cc(F)c(N3CCN(c4nc5c(cnn5C)c(=O)[nH]4)CC3)c(F)c2)CC1 [Compound I-60, 6-[4-[2 6-difluoro-4-[(4-methylpiperazin-1-yl)methyl]phenyl]piperazin-1-yl]-1-methyl-5H-pyrazolo[3 4-d]pyrimidin-4-one] | 3.8 |
| Cn1ncc2c(=O)[nH]c(N3CCN(c4c(F)cc(C(O)CO)cc4F)CC3)nc21 (stereo not drawn) [Compound I-63, 6-[4-[4-(1 2-dihydroxyethyl)-2 6-difluoro-phenyl]piperazin-1-yl]-1-methyl-5H-pyrazolo[3 4-d]pyrimidin-4-one] | 5.3 |
| Cn1ncc2c(=O)[nH]c(N3CCN(c4c(F)cc(OC5CCOCC5)cc4F)CC3)nc21 [Compound I-76, 6-[4-(2 6-difluoro-4-tetrahydropyran-4-yloxy-phenyl)piperazin-1-yl]-1-methyl-5H-pyrazolo[3 4-d]pyrimidin-4-one] | 11.1 |
| Cn1ncc2c(=O)[nH]c(N3CCC(S(C)(=O)=O)CC3)nc21 [Compound I-141, 1-methyl-6-(4-methylsulfonyl-1-piperidyl)-5H-pyrazolo[3 4-d]pyrimidin-4-one] | 652 |
| Cn1ncc2c(=O)[nH]c(N3CCN(C4CCN(C(=O)OC(C)(C)C)CC4)CC3)nc21 [Compound I-131, tert-butyl 4-[4-(1-methyl-4-oxo-5H-pyrazolo[3 4-d]pyrimidin-6-yl)piperazin-1-yl]piperidine-1-carboxylate] | 317 |
| Cn1ncc2c(=O)[nH]c(N3CCC(Cc4ccncc4)C3)nc21 (stereo not drawn) [Compound I-138, 1-methyl-6-[3-(4-pyridylmethyl)pyrrolidin-1-yl]-5H-pyrazolo[3 4-d]pyrimidin-4-one] | 536 |
| Cn1ncc2c(=O)[nH]c(N3CCN(c4c(F)cc(OCC(O)CO)cc4F)CC3)nc21 (stereo not drawn) [Compound I-68, 6-[4-[4-(2 3-dihydroxypropoxy)-2 6-difluoro-phenyl]piperazin-1-yl]-1-methyl-5H-pyrazolo[3 4-d]pyrimidin-4-one] | 7 |
| Cn1ncc2c(=O)[nH]c(N3CCC(C(=O)N4CCCC4)CC3)nc21 [Compound I-129, 1-methyl-6-[4-(pyrrolidine-1-carbonyl)-1-piperidyl)-5H-pyrazolo[3 4-d]pyrimidin-4-one] | 274 |
| Cn1ccc(C2(C)CCN(c3nc4c(cnn4C)c(=O)[nH]3)CC2)n1 [Compound I-90, 1-methyl-6-[4-methyl-4-(1-methylpyrazol-3-yl)-1-piperidyl]-5H-pyrazolo[3 4-d]pyrimidin-4-one] | 23.6 |
| Cn1ncc2c(=O)[nH]c(N3CCC(O)(c4ccc(F)cc4)CC3)nc21 [Compound I-93, 6-[4-(4-fluorophenyl)-4-hydroxy-1-piperidyl]-1-methyl-5H-pyrazolo[3 4-d]pyrimidin-4-one] | 24.6 |
| Cn1ncc2c(=O)[nH]c(N3CCC(c4nc(-c5cnccn5)no4)CC3)nc21 [Compound I-106, 1-methyl-6-[4-(3-pyrazin-2-yl-1 2 4-oxadiazol-5-yl)-1-piperidyl]-5H-pyrazolo[3 4-d]pyrimidin-4-one] | 64.1 |
| Cn1ncc2c(=O)[nH]c(N3CCC(Cc4ncccn4)C3)nc21 (stereo not drawn) [Compound I-133, 1-methyl-6-[3-(pyrimidin-2-ylmethyl)pyrrolidin-1-yl]-5H-pyrazolo[3 4-d]pyrimidin-4-one] | 337 |
| Cn1cncc1C1CCN(c2nc3c(cnn3C)c(=O)[nH]2)CC1 [Compound I-100, 1-methyl-6-[4-(3-methylimidazol-4-yl)-1-piperidyl]-5H-pyrazolo[3 4-d]pyrimidin-4-one] | 43.8 |
| Cn1ncc2c(=O)[nH]c(N3CCN(CC4CCCCC4)CC3)nc21 [Compound I-110, 6-[4-(cyclohexylmethyl)piperazin-1-yl]-1-methyl-5H-pyrazolo[3 4-d]pyrimidin-4-one] | 80.9 |
| COCCOc1cc(F)c(N2CCN(c3nc4c(cnn4CC(O)CO)c(=O)[nH]3)CC2)c(F)c1 (stereo not drawn) [Compound I-113, 6-[4-[2 6-difluoro-4-(2-methoxyethoxy)phenyl]piperazin-1-yl]-1-(2 3-dihydroxypropyl)-5H-pyrazolo[3 4-d]pyrimidin-4-one] | 90 |
| Cn1cc(CN2CCN(c3nc4c(cnn4C)c(=O)[nH]3)CC2)cn1 [Compound I-134, 1-methyl-6-[4-[(1-methylpyrazol-4-yl)methyl]piperazin-1-yl]-5H-pyrazolo[3 4-d]pyrimidin-4-one] | 342 |
| Cn1ncc2c(=O)[nH]c(N3CCN(c4c(F)cc(OC5CCS(=O)(=O)CC5)cc4F)CC3)nc21 [Compound I-70, 6-[4-[4-(1 1-dioxothian-4-yl)oxy-2 6-difluoro-phenyl]piperazin-1-yl]-1-methyl-5H-pyrazolo[3 4-d]pyrimidin-4-one] | 7.9 |
| Cn1ncc2c(=O)[nH]c(N3CCN(c4c(F)cc(OCCN5CCOCC5)cc4F)CC3)nc21 [Compound I-74, 6-[4-[2 6-difluoro-4-(2-morpholinoethoxy)phenyl]piperazin-1-yl]-1-methyl-5H-pyrazolo[3 4-d]pyrimidin-4-one] | 8.9 |
| Cn1ncc2c(=O)[nH]c(N3CCN([C@H]4CC[C@@H](O)CC4)CC3)nc21 [Compound I-124, 6-[4-(4-hydroxycyclohexyl)piperazin-1-yl]-1-methyl-5H-pyrazolo[3 4-d]pyrimidin-4-one] | 171 |
| Cn1ncc2c(=O)[nH]c(-c3ccc(S(=O)(=O)CC4CCCCC4)cc3)nc21 [Compound I-108, 6-[4-(cyclohexylmethylsulfonyl)phenyl]-1-methyl-5H-pyrazolo[3 4-d]pyrimidin-4-one] | 68.4 |
| Cn1nccc1C1(C)CCN(c2nc3c(cnn3C)c(=O)[nH]2)CC1 [Compound I-96, 1-methyl-6-[4-methyl-4-(2-methylpyrazol-3-yl)-1-piperidyl)-5H-pyrazolo[3 4-d]pyrimidin-4-one] | 28.4 |
